According to patent publication US20110136245A1, “SYNERGISTIC INTERACTIONS OF PHENOLIC COMPOUNDS FOUND IN FOOD” (priority 2009, published 2011):

Experiments:
[1] = ORAC assay, phenolic compounds found in strawberries; type: biochemical; conditions: strawberry combinations and individual antioxidants; values per gram
Text: FIG. 5 provides the structures. […] Solubility was checked after thawing and dilution. […] All possible combinations of two compounds were mixed on an equal volume basis after being prepared at the concentrations found in Table 4 to ensure relative concentrations were maintained. Mixtures were then further diluted to match the lowest individual compound molarity to fit the Trolox standard curve. […] The same pattern was repeated for combinations of four: the top three synergistic combinations of three were combined with all possible fourth compounds. No statistically significant increases in antioxidant capacity were found for combinations of four. […] Combinations were prepared on the same day of their ORAC assay. ORAC assays were carried out according to Dávalos et al. […] Parameters of the assay were as follows: reader temperature: 37 degrees C., cycle number, 120; cycle time, 60 seconds; shaking mode, 3 seconds of orbital shaking before each cycle. A fluorescence filter with an excitation wavelength of 485/20 nm and an emission wavelength of 520/20 nm was used. Samples were prepared in 96-well plates in a mirror fashion, based on a planned layout. Each mirrored duplicate was averaged and counted as one data point. All samples were measured in quadruplicate (eight wells total) to obtain necessary statistical power. […] The data were analyzed using a Microsoft Excel 2007 (Microsoft, Redmond, Wash., USA) spreadsheet to determine area under the curve and to convert the data to Trolox equivalents based on the Trolox standard curve. […] Likewise, for combinations of three and four, the difference was calculated by subtracting the average of the individual three or four compounds from the combination. […] Difference=(combination abc)−(combination ab+individual c) (7) Difference=(combination abcd)−(combination abc+d) (8)

[2] = published values (Jorgensen & Skibsted 1998; Foley et al. 1999); cited from earlier work
[3] = marketed products and foods listed for comparison; cited from earlier work
[4] = marketed products and foods listed for comparison; cited from earlier work; remark: listed apart in the source
[5] = Solubility on stock solution preparation; conditions: weighable concentrations, stock solution in methanol / NaOH
Procedure: Because of the high water content of oranges, no density adjustment was made. Compounds were prepared assuming 100 g was 100 mL in volume. All compounds except hesperidin and luteolin were weighed (10× to 1000× of Table 1 concentration to facilitate weighing) and dissolved in methanol. […] The phenolic stock solutions were stored in 1 mL aliquots at −20.C. Phenolics were brought to RT, vortexed, and diluted in 7:3 (v:v) acetone:water to match the fruit concentrations in Table 1. To fit the Trolox standard curve (see below for assay description), compounds were further diluted in 7:3 (v:v) acetone:water to the following molar concentrations prior to transfer to the 96-well plate: chlorogenic acid, 10.7 μM; hesperidin, 10.2 μM; luteolin, 2.45 μM; myricetin, 0.786 μM; naringenin, 2.61 μM; pcoumaric acid, 1.95 μM; and quercetin, 6.62 μM. Solubility was checked after thawing and dilution. All work involving phenolic compounds, fluorescein, and Trolox was performed in dark conditions to minimize degradation.
It was assumed that 1 g fruit puree was 1 ml in volume for sample preparation, as a density adjustment would not change relative concentrations that would be tested. All compounds except ellagic acid were weighed then dissolved in methanol. […] The phenolic stock solutions were stored in 1 mL aliquots at −20° C. […]

Row | SMILES | ORAC Value (µmol Trolox equivalents/g) [1] | one-electron reduction potential [2] | other results
1 | O=c1oc2c(O)c(O)cc3c(=O)oc4c(O)c(O)cc1c4c23 [ellagic acid] | 7820 µmol Trolox equivalents/g | – | –
2 | O=c1c(O)c(-c2ccc(O)cc2)oc2cc(O)cc(O)c12 [kaempferol] | – | 0.39 V | –
3 | O=c1c(O)c(-c2ccc(O)c(O)c2)oc2cc(O)cc(O)c12 [quercetin] | – | 0.29 V | –
4 | O=C1O[C@H]([C@@H](O)CO)C(O)=C1O [ascorbic acid (vitamin C), ascorbic acid] | – | – | ORAC Value (μmol Trolox Equivalents/g of mixture) [3]: 2,000 μmol Trolox Equivalents/g of mixture; ORAC Value [4]: 2,000 mol Trolox Equivalents/g of mixture
5 | COc1ccc([C@@H]2CC(=O)c3c(O)cc(O[C@@H]4O[C@H](CO[C@@H]5O[C@@H](C)[C@H](O)[C@@H](O)[C@H]5O)[C@@H](O)[C@H](O)[C@H]4O)cc3O2)cc1O [hesperidin] | – | – | solubility [5]: only fully soluble at weighable concentrations in a basic solution
6 | O=C(O)/C=C/c1ccc(O)cc1 [p-coumaric acid] | 20500 µmol Trolox equivalents/g | 0.59 V | –
7 | O=c1c(O[C@@H]2O[C@H](CO)[C@@H](O)[C@H](O)[C@H]2O)c(-c2ccc(O)c(O)c2)oc2cc(O)cc(O)c12 [quercetin-3-glucoside] | 20300 µmol Trolox equivalents/g | – | –
